These results are taken from US20080188473A1, “Indoles Useful in the Treatment of Inflammation” (priority 2004, published 2008).

SMILES strings stand for the structures.

The target of the experiment is T1, human mPGES-1 (Homo sapiens, UniProt O14684).
T1 construct: made in house; host or cells: E. coli (membrane fraction)
T1 sequence (O14684 1-152): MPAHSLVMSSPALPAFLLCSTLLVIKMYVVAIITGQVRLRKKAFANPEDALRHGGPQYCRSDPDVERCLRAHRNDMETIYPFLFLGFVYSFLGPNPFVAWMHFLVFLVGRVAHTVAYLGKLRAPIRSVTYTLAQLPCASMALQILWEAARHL
Nature of the experiment: mPGES-1 inhibition assay (conversion of PGH2 to PGE2, HPLC analysis). The following applies: human mPGES-1 expressed in E. coli, membrane fraction; 25 min preincubation with inhibitor, PGH2 substrate 60 seconds, room temperature; read-out: concentration at which 50% inhibition of mPGES-1 was observed. The format is biochemical. How it is done: In the assay human mPGES-1 catalyses the reaction where the substrate PGH2 is converted to PGE2. mPGES-1 is expressed in E. coli and the membrane fraction is dissolved in 20 mM NaPi-buffer pH 8.0 and stored at −80° C. […] The stop solution consists of H2O/MeCN (7/3), containing FeCl2 (25 mM) and HCl (0.15 M). The assay is performed at room temperature in 96-well plates.
The following is added chronologically to each well: • 1. 100 μL human in PGES-1 in KPi-buffer with glutathione. Total protein concentration: 0.02 mg/mL. • 2. 1 μL inhibitor in DMSO. Incubation of the plate at room temperature for 25 minutes. • 3. 4 μL of a 0.25 mM PGH2 solution. Incubation of the plate at room temperature for 60 seconds. • 4. 100 μL stop solution. • 180 μL per sample is analyzed with HPLC.
In the case of `CC(=O)Nc1c(C(=O)O)n(-c2ccc(OC(C)C)cc2)c2ccc(-c3ccc(OC(C)C)cc3)cc12` [Example 1, 3-Acetamido-1,5-bis(4-isopropoxyphenyl)-indole-2-carboxylic acid], the IC50 came to 3.1 µM.

As for `CC(C)Oc1ccc(-c2ccc3c(c2)c(NS(C)(=O)=O)c(C(=O)O)n3-c2ccc(OC(C)C)cc2)cc1` [Example 3, 1,5-Bis(4-isopropoxyphenyl)-3-(methylsulfonamido)indole-2-carboxylic acid], the IC50 came out at 1.7 µM.

As to `CC(C)Oc1ccc(-n2c(C(=O)O)c(N3CCOCC3)c3cc(-c4ccc(C(F)(F)F)cc4)ccc32)cc1` [Example 7, 1-(4-Isopropoxyphenyl)-3-(4-morpholino)-5-(4-(trifluoromethyl)phenyl)-indole-2-carboxylic acid], the IC50 is 0.73 µM. To `CC(=O)N(C)c1c(C(=O)O)n(-c2ccc(OC(C)C)cc2)c2ccc(-c3ccc(C(F)(F)F)cn3)cc12` [Example 12, 3-(Acetylmethylamino)-1-(4-isopropoxyphenyl)-5-(5-trifluoromethyl-pyridin-2-yl)-1H-indole-2-carboxylic acid] belongs 5.3 µM; to `CC(C)Oc1ccc(-n2c(C(=O)O)c(NC(=O)c3cccnc3)c3cc(-c4ccc(C(F)(F)F)cn4)ccc32)cc1` [Example 13, 1-(4-Isopropoxyphenyl)-3-nicotinamide-5-(5-trifluoromethylpyridin-2-yl)-1H-indole-2-carboxylic acid], 0.19 µM.
